The results in this text go back to US11077126B2 (priority 2017, dated 2021).

The test system of series [1] is transplanted tumor of human esophageal cancer TE-1 cells. As to the kind of experiment: Human esophageal cancer in nude mice model. To be noted: 30 mg/kg. On the procedure:
(§1) Then cell concentration was adjusted to 1×10^7/ml with matrigel, and then each nude mouse was inoculated subcutaneously with 0.2 ml of cells at its right armpit and recorded as the first day of inoculation. […] Each group was continuously administered intragastrically for 30 days with a dose of 20 ml/kg. The mice were sacrificed the next day after drug withdrawal and the indicators were tested. The long diameter and short diameter of the tumor, and the body weight of each mouse were recorded every 3 days from drug administration to nude mouse sacrifice.
(§2) The body weight of the nude mice and the long diameter (a) and short diameter (b) of the transplanted tumor were measured every 3 days, and the tumor volume (v), relative tumor volume (RTV) and relative tumor proliferation rate (T/C) are calculated respectively according to the following formulas, wherein V=a×b^2/2; RTV=V/V0 (V0 is the tumor volume before administration, V is the tumor volume before sacrifice), and T/C (%)=treatment group RTV/model control group RTV×100%.
(§3) Each mouse was weighed and sacrificed. After the tumor was completely stripped off from the body of the mouse, the non-tumor tissues such as blood stains and fat were removed to weigh the tumor and calculate the tumor growth inhibition rate. The average tumor weight of each group of mice is used as an indicator of efficacy. Tumor growth inhibition rate (%)=(1−the average tumor weight of the treatment group/the average tumor weight of the model group)×100%.

Series [2] deals with spleen of A549 lung cancer tumor-bearing mice. The format is in vivo. As to the method:
(§4) After the tumor-bearing mice are sacrificed, the spleen and thymus are weighed, and the spleen index and thymus index are calculated.

The test system of series [3] is thymus and spleen of H22 liver cancer tumor-bearing mice. It is filed as in vivo. On the procedure: as §4
The subject of series [4] is transplanted tumor of human renal clear cell adenocarcinoma 786-O cells. Description: Human renal clear cell adenocarcinoma in nude mice model. To be noted: 786-O nude mice; 30 mg/kg i.g. 30 d. On the procedure: as §1, with “786-O cells in a logarithmic growth phase were taken and subjected to a trypan blue exclusion experiment showing that the cell viability was more than 95%, then the cells were subjected to trypsinization, centrifugation, and supernatant removal. Then” for “Then”
as §2, §3

Where [5] appears, read: H22 tumor-bearing mice, cyclophosphamide, P<0.01.

Turning to `O=P1(N(CCCl)CCCl)NCCCO1` (stereo not shown) [Cyclophosphamide], in series [1], the “Relative Tumor Proliferation Rate(T/C)” value is given as 52.01%, the “Relative Tumor Volume (RTV)” value stood at 9.05 ± 2.58 and the “Tumor Weight” value was 0.66 ± 0.28 g. Further, the “Inhibition Rate (%)” value in series [1] (by tumor weight) stood at 72.12%. In addition, in series [1] (d1), the “Body Weight (g)(d1)” value was 22.78 ± 1.35 g and the “Tumor Volume (mm3) (d1)” value turned out to be 92.02 ± 7.06 mm3. For the same molecule, in series [1] (d30), the “Body Weight (g)(d30)” value came to 21.32 ± 1.63 g and the “Tumor Volume (mm3) (d30)” value is reported as 830.30 ± 34.31 mm3. Besides, the “Spleen Index (%)” value in series [2] (26 mg/kg, positive drug group, n = 6) is given as 0.20 ± 0.03 %. Also, the “spleen index compared with the control group” value in series [2] (A549 lung cancer tumor-bearing mice, cyclophosphamide, P<0.01) was “significantly lower”. In addition, in series [3] (26 mg/kg, positive drug group), the “Spleen Index (%)” value amounted to 0.38 ± 0.09 % and the “Thymus Index (%)” value was found to be 0.04 ± 0.02 %. In series [3] (setting [5]), the “spleen index compared with the control group” value is recorded as “significantly lower” and the “thymus index compared with the control group” value is on record as “significantly lower”. Moreover, in series [4], the “Body Weight (g)(d1)” value is 21.57 ± 1.31 g, the “Body Weight (g)(d30)” value was 20.39 ± 1.02 g, the “Inhibition Rate (%)” value is 71.36% and the “Relative Tumor Proliferation Rate(T/C)” value was found to be 19.93%. Further, in series [4], the “Relative Tumor Volume (RTV)” value is 3.34 ± 0.68, the “Tumor Volume (mm3) (d1)” value came to 181.48 ± 31.63 mm3, the “Tumor Volume (mm3) (d30)” value is reported as 606.14 ± 14.34 mm3 and the “Tumor Weight” value turned out to be 0.62 ± 0.17 g.
